Source: patent publication US9695155B2, “Herbicidal substituted pyrimidinyloxy benzene compounds” (E. I. DU PONT DE NEMOURS AND COMPANY, priority 2013, dated 2017)

Experiments:
[1] = system: deadnettle; test: Test D preemergence; format: in vivo, Lamium amplexicaule; details: Lamium amplexicaule, pre-emergence; for pest or weed control at 16 g/ha: 16 g ai/ha, scale 0 (no effect) to 100 (complete control), read-out: Plant response rating, Deadnettle; for pest or weed control at 31 g/ha: 31 g ai/ha; for pest or weed control at 31 g/ha / pest or weed control at 62 g/ha / pest or weed control at 125 g/ha: scale 0-100, read-out: Plant response rating, Deadnettle; for pest or weed control at 62 g/ha: 62 g ai/ha; for pest or weed control at 125 g/ha: 125 g ai/ha
How it was run: (§1)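 Visual rating vs untreated controls, 0 = no effect, 100 = complete control, taken 7–21 d after treatment. Pre: silt loam soil. Post: potting medium, plants 2–18 cm, 1–4 leaf. Formulation: non-phytotoxic solvent mix + surfactant.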

[2] = system: spring wheat; test: Test D preemergence; format: in vivo, Triticum aestivum; details: Triticum aestivum, pre-emergence; for plant injury at 16 g/ha: 16 g ai/ha; for plant injury at 16 g/ha / plant injury at 31 g/ha: scale 0 (no effect) to 100 (complete control), read-out: Plant response rating, Wheat, Spring; for plant injury at 31 g/ha: 31 g ai/ha; for plant injury at 62 g/ha: 62 g ai/ha; for plant injury at 62 g/ha / plant injury at 125 g/ha: scale 0-100, read-out: Plant response rating, Wheat, Spring; for plant injury at 125 g/ha: 125 g ai/ha
How it was run: as §1

[3] = system: winter wheat; test: Test D preemergence; format: in vivo, Triticum aestivum; details: Triticum aestivum, pre-emergence; for plant injury at 16 g/ha: 16 g ai/ha; for plant injury at 16 g/ha / plant injury at 31 g/ha: scale 0 (no effect) to 100 (complete control), read-out: Plant response rating, Wheat, Winter; for plant injury at 31 g/ha: 31 g ai/ha; for plant injury at 62 g/ha: 62 g ai/ha; for plant injury at 62 g/ha / plant injury at 125 g/ha: scale 0-100, read-out: Plant response rating, Wheat, Winter; for plant injury at 125 g/ha: 125 g ai/ha
How it was run: as §1

[4] = system: wild mustard; test: Test D preemergence; format: in vivo, Sinapis arvensis; details: Brassica, pre-emergence; for pest or weed control at 16 g/ha: 16 g ai/ha, scale 0 (no effect) to 100 (complete control), read-out: Plant response rating, Mustard, Wild; for pest or weed control at 31 g/ha: 31 g ai/ha; for pest or weed control at 31 g/ha / pest or weed control at 62 g/ha / pest or weed control at 125 g/ha: scale 0-100, read-out: Plant response rating, Mustard, Wild; for pest or weed control at 62 g/ha: 62 g ai/ha; for pest or weed control at 125 g/ha: 125 g ai/ha
How it was run: as §1

[5] = system: bluegrass; test: Test D postemergence; format: in vivo, Poa annua; details: Poa annua, post-emergence, Postemergence, scale 0 to 100 (0 no effect, 100 complete control), read-out: Plant response rating, Bluegrass; for pest or weed control at 16 g/ha: 16 g ai/ha; for pest or weed control at 31 g/ha: 31 g ai/ha; for pest or weed control at 62 g/ha: 62 g ai/ha; for pest or weed control at 125 g/ha: 125 g ai/ha
How it was run: as §1

[6] = system: galium; test: Test D postemergence; format: in vivo, Galium aparine; details: Galium, post-emergence; for pest or weed control at 16 g/ha: 16 g ai/ha, scale 0-100, read-out: Plant response rating, Galium; for pest or weed control at 31 g/ha: 31 g ai/ha; for pest or weed control at 31 g/ha / pest or weed control at 62 g/ha / pest or weed control at 125 g/ha: scale 0 to 100 (0 no effect, 100 complete control), read-out: Plant response rating, Galium; for pest or weed control at 62 g/ha: 62 g ai/ha; for pest or weed control at 125 g/ha: 125 g ai/ha
How it was run: as §1

[7] = system: field violet; test: Test D postemergence; format: in vivo, Viola arvensis; details: Viola arvensis, post-emergence; for pest or weed control at 16 g/ha: 16 g ai/ha, scale 0-100, read-out: Plant response rating, Field Violet; for pest or weed control at 31 g/ha: 31 g ai/ha; for pest or weed control at 31 g/ha / pest or weed control at 62 g/ha / pest or weed control at 125 g/ha: scale 0 to 100 (0 no effect, 100 complete control), read-out: Plant response rating, Field Violet; for pest or weed control at 62 g/ha: 62 g ai/ha; for pest or weed control at 125 g/ha: 125 g ai/ha
How it was run: as §1

[8] = system: Italian ryegrass; test: Test D postemergence; format: in vivo, Lolium multiflorum; details: Lolium multiflorum, post-emergence; for pest or weed control at 16 g/ha: 16 g ai/ha, scale 0-100, read-out: Plant response rating, Ryegrass, Italian; for pest or weed control at 31 g/ha: 31 g ai/ha; for pest or weed control at 31 g/ha / pest or weed control at 62 g/ha / pest or weed control at 125 g/ha: scale 0 to 100 (0 no effect, 100 complete control), read-out: Plant response rating, Ryegrass, Italian; for pest or weed control at 62 g/ha: 62 g ai/ha; for pest or weed control at 125 g/ha: 125 g ai/ha
How it was run: as §1

[9] = system: oilseed rape; test: Test D postemergence; format: in vivo, Brassica napus; details: Brassica napus, post-emergence; for plant injury at 16 g/ha: 16 g ai/ha, scale 0-100, read-out: Plant response rating, Oilseed Rape; for plant injury at 31 g/ha: 31 g ai/ha; for plant injury at 31 g/ha / plant injury at 62 g/ha / plant injury at 125 g/ha: scale 0 to 100 (0 no effect, 100 complete control), read-out: Plant response rating, Oilseed Rape; for plant injury at 62 g/ha: 62 g ai/ha; for plant injury at 125 g/ha: 125 g ai/ha
How it was run: as §1

`FC(F)(F)COc1cnn(-c2ccccc2Oc2ncc(Cl)cn2)c1` [Compound 138, 5-chloro-2-[2-[4-(2,2,2-trifluoroethoxy)-1H-pyrazol-1-yl]phenoxy]pyrimidine] was tested, and the pest or weed control at 16 g/ha [1] was 5%, the pest or weed control at 31 g/ha [1] was 5% and the pest or weed control at 62 g/ha [1] was 20%. For the same molecule, the pest or weed control at 125 g/ha [1] was 30%, the plant injury at 16 g/ha [2] was 0% and the plant injury at 31 g/ha [2] was 10%. For the same molecule, the plant injury at 62 g/ha [2] was 15%, the plant injury at 125 g/ha [2] was 15% and the plant injury at 16 g/ha [3] was 0%. The plant injury at 31 g/ha [3] was 5%, the plant injury at 62 g/ha [3] was 5% and the plant injury at 125 g/ha [3] was 5%. For the same molecule, the pest or weed control at 16 g/ha [4] was 55%, the pest or weed control at 31 g/ha [4] was 65% and the pest or weed control at 62 g/ha [4] was 100%. It also gave a pest or weed control at 125 g/ha [4] of 100%, a pest or weed control at 16 g/ha [5] of 0% and a pest or weed control at 31 g/ha [5] of 5%. The pest or weed control at 62 g/ha [5] was 5%, the pest or weed control at 125 g/ha [5] was 10% and the pest or weed control at 16 g/ha [6] was 70%. It also gave a pest or weed control at 31 g/ha [6] of 70%, a pest or weed control at 62 g/ha [6] of 75% and a pest or weed control at 125 g/ha [6] of 75%. The pest or weed control at 16 g/ha [7] was 25%, the pest or weed control at 31 g/ha [7] was 50% and the pest or weed control at 62 g/ha [7] was 65%. It also gave a pest or weed control at 125 g/ha [7] of 75%, a pest or weed control at 16 g/ha [8] of 5% and a pest or weed control at 31 g/ha [8] of 0%. The pest or weed control at 62 g/ha [8] was 0%, the pest or weed control at 125 g/ha [8] was 5% and the plant injury at 16 g/ha [9] was 70%. The plant injury at 31 g/ha [9] was 70%, the plant injury at 62 g/ha [9] was 75% and the plant injury at 125 g/ha [9] was 75%.

With `FC(F)(F)c1cn(-c2ccccc2Oc2ncc(Cl)cn2)nn1` [Compound 166, 5-chloro-2-[2-[4-(trifluoromethyl)-1H-1,2,3-triazol-1-yl]phenoxy]pyrimidine] the pest or weed control at 16 g/ha [1] was 70%, the pest or weed control at 31 g/ha [1] was 75% and the pest or weed control at 62 g/ha [1] was 100%. The pest or weed control at 125 g/ha [1] was 100%, the plant injury at 16 g/ha [2] was 0% and the plant injury at 31 g/ha [2] was 0%. It also gave a plant injury at 62 g/ha [2] of 10%, a plant injury at 125 g/ha [2] of 60% and a plant injury at 16 g/ha [3] of 0%. The plant injury at 31 g/ha [3] was 0%, the plant injury at 62 g/ha [3] was 0% and the plant injury at 125 g/ha [3] was 25%. The pest or weed control at 16 g/ha [4] was 65%, the pest or weed control at 31 g/ha [4] was 95% and the pest or weed control at 62 g/ha [4] was 100%. For the same molecule, the pest or weed control at 125 g/ha [4] was 100%, the pest or weed control at 16 g/ha [5] was 20% and the pest or weed control at 31 g/ha [5] was 40%. The pest or weed control at 62 g/ha [5] was 55%, the pest or weed control at 125 g/ha [5] was 65% and the pest or weed control at 16 g/ha [6] was 70%. The pest or weed control at 31 g/ha [6] was 75%, the pest or weed control at 62 g/ha [6] was 80% and the pest or weed control at 125 g/ha [6] was 90%. The pest or weed control at 16 g/ha [7] was 60%, the pest or weed control at 31 g/ha [7] was 65% and the pest or weed control at 62 g/ha [7] was 70%. It also gave a pest or weed control at 125 g/ha [7] of 85%, a pest or weed control at 16 g/ha [8] of 10% and a pest or weed control at 31 g/ha [8] of 20%. For the same molecule, the pest or weed control at 62 g/ha [8] was 25%, the pest or weed control at 125 g/ha [8] was 40% and the plant injury at 16 g/ha [9] was 60%. The plant injury at 31 g/ha [9] was 65%, the plant injury at 62 g/ha [9] was 95% and the plant injury at 125 g/ha [9] was 100%.
